Measured values from patent US6399568B1, “Cyclic tetrapeptide derivatives and medicinal use thereof” (Japan Energy Corporation, priority 1997, dated 2002).
Non-standard residues stand in square brackets, D forms with d. Residues, ends and D or L forms follow the SMILES beside them. *: point of attachment. Asu = N[C@@H](CCCCCC(=O)O)C(=O)O; NHOH = ON*

Assays:
[1] = rat, in vivo, 10 mg/kg
Description: Under anesthesia with Ketamine/Kylazine mixture, SD rats were administered with HDA-31 into the tail vein (10 mg/kg; 2 ml/kg). The drug was dispersed in PBS and neutralized with NaOH and the resulting suspension was used. After administration, blood was taken from the carotid artery at a given interval of time (using heparin as an anti-coagulant) and centrifuged to prepare plasma. HDA-31 in the plasma was extracted with MTBE (methyl-t-butyl-ether) and separated by reverse-phase HPLC and a peak area corresponding to HDA-31 was quantitatively determined with a mass spectrometer.

[2] = system: mouse malignant melanoma B16/BL6 cell line; assay type: cell-based; details: 72 hours; read-out: 50% proliferation inhibiting concentration B16/BL6 (nM) mean
Excerpt: (§1) In order to verify the action of the cyclic tetrapeptide derivative according to the present invention in inhibiting cell proliferation in cancerized cells, the action on the proliferation of the aforementioned B16/BL6 cells was investigated. The evaluation of cell proliferation rates was done utilizing a commercially available measuring kit, specifically, from Promega under the trade name CellTiter 96 Aqueous Non-Radioactive Proliferation Assay Kit. In the measuring kit, the amount of products through reduction of a reagent tetrazolium compound (3-(4,5-dimethylthiazol-2-yl)-5-(3-carboxymethoxyphenyl)-2-(4-sulfophenyl)-2H-tetrazolium, inner salt; MTS) by viable animal cells is determined by detecting spectrophotometrically the color generated from the products. Since the amount of products is proportional to the amount of viable cells, this kit is utilized to evaluate the amount of viable cells.
According to the procedure of Test Example 1, B16/BL6 cells are inoculated in a 96 well microplate and cultured for 24 hours. […] Thereafter, culture is continued for additional 48 hours and 20 μl of a reagent solution in the aforementioned CellTiter 96 Aqueous Non-Radioactive Proliferation Assay Kit is then added. After incubation is continued at 37° C. for 1 hour, the amount of color generation is measured as an absorbance at 490 n musing a microplate reader.
(§2) The amount of cell proliferation of a group to which a compound to be tested is added is expressed in a relative value as compared to the standard cell proliferation (100%) in a control group to which no compound to be tested is added. For each compound tested, the amounts of cell proliferation were measured at different concentrations of addition and the dependence of the quantitative cell proliferation on the concentration of addition was investigated.
(§3) The test method was in accordance with the above-mentioned procedure, except that the period of incubation after the addition of a compound was 72 hours.

[3] = system: B16/BL6 cells; test: MHC class-I molecule expression promoting activity; assay type: cell-based, mouse; details: mean of a plurality of assays; 72 hours
Description: The cancer cells used were mouse melanoma cells, B16/BL6 cells, provided by, the National Cancer Institute, U.S.A. Said cells were cultivated in MEM media supplemented with 10% FBS at 37° C. in the presence of 5% carbon dioxide in an humidified incubator.
A compound to be tested was preliminarily dissolved in dimethyl sulfoxide (DMSO) and adjusted to a concentration of 100 mM or 10 mM (source solution).
Said B16/BL6 cells were inoculated on 96 well microplate at a cell density of 5000 cells per well, each well containing 200 μl of said medium. […] Thereafter, each well was once washed with PBS (phosphate buffered saline) and floating cells and the medium were removed. Then, the well was treated with 0.1% glutaraldehyde solution for 3 minutes to fix the cells.
The amount of MHC class-I molecule expressed on the surface of the fixed cells was measured by the following method. Anti-H-2K^bD^bD^d antibody, which is an antibody against mouse MHC classI molecule (commercially available from Meiji Milk Co., Ltd), was used as a primary antibody, biotinylated anti-mouse IgG+M (commercially available from Chemicon) was used as a secondary antibody, and streptavidin-β-galactosidase conjugate (commercially available from BRL) was reacted as a labelling enzyme. The amount of the thus labelled enzyme β-galactosidase was measured in a microplate reader by recording the fluorescent intensity (excitation: 365 nm, fluorescence: 450 nm) derived from the enzymaticreaction product using 4-methylumbelliferyl-β-D-galactoside (commercially available from Nacalai Tesque) as a substrate. […] The value obtained by subtracting said background level from the, actually measured value (an apparent value including the background level) was the true measurement reflecting the amount of expressed MHC class-I molecule.
A group without the addition of any compound to be tested was used as a reference group and the measurement of MHC class-I molecule expressed in said group was used as a standard value. The amount of MHC class-I molecule expressed at a concentration of addition of each test compound is shown as a relative amount, said standard value taken as one (1). For each compound to be tested, various concentrations of addition were selected to investigate the dependency of MHC class-I molecule expression promoting action on the concentration of addition.

[4] = system: mouse malignant melanoma B16 cell line; test: Cell proliferation inhibition (72 hours); assay type: cell-based; details: read-out: 50% proliferation inhibiting concentration B16 (nM) mean
Excerpt: as §1
According to the procedure of Test Example 1, B16/BL6 cells are inoculated in a 96 well microplate and cultured for 24 hours. Then, 10 μl of a solution of the source solution of a compound to be tested which has been diluted to a predetermined amount per well is added. Thereafter, culture is continued for additional 48 hours and 20 μl of a reagent solution in the aforementioned CellTiter 96 Aqueous Non-Radioactive Proliferation Assay Kit is then added. After incubation is continued at 37° C. for 1 hour, the amount of color generation is measured as an absorbance at 490 n musing a microplate reader.
as §2, with “investigated. From the results, a concentration of addition at which the amount of cell proliferation was inhibited by 50% relative to the amount of cell proliferation in the control group without addition was determined.” for “investigated.”
as §3
As illustrative examples, results are shown for an evaluation using mouse malignant melanoma B16/BL6 and B16 cell lines; leukemia L1210 cell line, colon cancer Colon26 cell line, and liver cancer MH134 cell line as cancer cells. For the cell proliferation inhibiting action of each compound tested for these cancer cells, 50% proliferation inhibiting concentrations are shown in Table 4.

[5] = system: B16; test: In vivo anti-cancer activity in mouse (ascites tumor system); details: for Median Survival days (T/C %): B16 ascites, BDF1 mouse
Description: (§4) With respect to an ascites tumor system, in vivo anti-cancer activity of the cyclic tetrapeptide compounds according to the present invention was evaluated using cancer-carrying mouse. The cancer cells used were L1210, B16, Colon26and MH134. These cancer cells were cultured in a conventional manner and suspended in PBS, and 10^5 cells of L1210, or 10^6 cells of B16, Colon26 or MH134 were intraperitoneally transplanted into each mouse (100 μl/mouse). The mouse used was CDF1, BDF1, CDF1 or C3H/HeN (male, 7 weeks in age) for L1210, B16, Colon 26or MH134, respectively. Drug administration was started from the day next to the transplantation of cancer cells. For L1210, 0.5% carboxymethyl cellulose Na suspension and for other cancer cells, PBS solution (actually, as suspension neutralized with NaOH) were continuously administered everyday (100 μl/mouse). The period of administration was 4 days for L1210, 9 days for B16 and MH134, and 8 days for Colon26.
(§5) After the administration period passed, the mice administered were bred and median survival days were calculated on the basis of the number of days from the transplantation of cancer cells to death. The percent ratio (T/C%) between the median survival days (C) for a control group to which an equal amount of a drug-free solution was administered and the median survival days (T) of the treated group administered with the drug was determined.

[6] = system: Colon26; test: as above; details: for Median Survival days (T/C %): Colon26 ascites, CDF1 mouse
Description: as §4, §5

[7] = system: L1210; test: as above; details: for Median Survival days (T/C %): L1210 ascites, CDF1 mouse
Description: as §4, §5

[8] = system: MH134; test: as above; details: for Median Survival days (T/C %): MH134 ascites, C3H/HeN mouse
Description: as §4, §5

[9] = 0.015 mg/mouse everyday for 9 days
[10] = 0.05 mg/mouse everyday for 9 days
[11] = 0.15 mg/mouse everyday for 9 days

Structure (SMILES): CC[C@H](C)[C@@H]1NC(=O)[C@@H](Cc2ccc(OC)cc2)NC(=O)[C@H](CCCCCC(=O)NO)NC(=O)[C@H]2CCCN2C1=O [HDA-31, cyclo(-L-Asu(NHOH)-D-Tyr(Me)-L-Ile-D-Pro-)] (cyclo([Asu](NHOH)[dY](Me)I[dP]))
- concentration in blood (plasma) after intravenous administration [1]: concentrations in blood exceeding the stated effective concentrations were maintained over a few hours
- IC50 [2]: 5.43 nM
- conc. for 2-fold expression (nM) mean [3]: 1.41 nM
- IC50 [4]: 44.2 nM
- life-saving effect ([5]; B16 ascites tumor): obviously exhibited a life-saving effect
- Median Survival days (T/C %) [5, 9]: 117%
- Median Survival days (T/C %) [5, 10]: 119%
- Median Survival days (T/C %) [5, 11]: 139%
- life-saving effect ([6]; Colon26 ascites tumor): no life-saving effect was observed
- Median Survival days (T/C %) ([6]; 0.015 mg/mouse everyday for 8 days): 90.9%
- Median Survival days (T/C %) ([6]; 0.05 mg/mouse everyday for 8 days): 86.4%
- Median Survival days (T/C %) ([6]; 0.15 mg/mouse everyday for 8 days): 63.6%
- life-saving effect ([7]; L1210 ascites tumor): obviously exhibited a life-saving effect
- Median Survival days (T/C %) ([7]; 0.015 mg/mouse everyday for 4 days): 113%
- Median Survival days (T/C %) ([7]; 0.15 mg/mouse everyday for 4 days): 125%
- Median Survival days (T/C %) ([7]; 1.5 mg/mouse everyday for 4 days): 37.5%
- life-saving effect ([8]; MH134 ascites tumor): no life-saving effect was observed
- Median Survival days (T/C %) [8, 9]: 95.8%
- Median Survival days (T/C %) [8, 10]: 85.4%
- Median Survival days (T/C %) [8, 11]: 91.7%
